# Results taken from patent US12570642B2, “GLP-IR modulating compounds” (Gilead Sciences, Inc., priority 2021, dated 2026).
# Target: GLP-1R (Homo sapiens, UniProt P43220)
# Test: GLP-1R Activation - cAMP Assay
# Type: cell-based
# Settings: each compound run on one of the two cAMP assays (Assay 1 or Assay 2, not specified)
# Procedure, shortened: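 cAMP rise read by HTRF after 30 min agonist exposure (10-point titration, 37 °C) in HBSS/20 mM Hepes/0.1% BSA, following 1 h pre-incubation. Cells: stable GLP-1R CHO line, 1,000/well, seeded overnight. Sigmoidal fit of response vs log concentration gives EC50.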
# [1] = cAMP increase in CHO cells stably expressing GLP-1R
# Chain of GLP-1R (P43220 24-463): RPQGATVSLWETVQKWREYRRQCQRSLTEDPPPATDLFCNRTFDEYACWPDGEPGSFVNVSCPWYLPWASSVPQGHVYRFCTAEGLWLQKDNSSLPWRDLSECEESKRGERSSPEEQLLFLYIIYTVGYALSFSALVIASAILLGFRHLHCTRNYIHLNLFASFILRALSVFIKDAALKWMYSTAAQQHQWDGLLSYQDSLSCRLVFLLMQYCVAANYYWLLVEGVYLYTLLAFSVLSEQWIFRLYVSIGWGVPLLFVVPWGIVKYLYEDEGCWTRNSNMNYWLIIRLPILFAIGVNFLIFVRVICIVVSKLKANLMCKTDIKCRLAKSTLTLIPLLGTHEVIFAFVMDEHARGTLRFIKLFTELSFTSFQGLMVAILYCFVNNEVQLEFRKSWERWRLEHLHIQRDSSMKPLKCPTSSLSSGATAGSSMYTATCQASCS
Compound,EC50 [1] [nM],EC50 ([…]) [nM]
"Cc1cc(Cc2nc3c(F)cc(C(=O)O)cc3n2[C@@H]2COCC2(C)C)c(Cl)cc1-c1ccc(F)c(OCc2ccc(C#N)cc2F)n1 [Example 138, (S)-2-(2-chloro-4-(6-((4-cyano-2-fluorobenzyl)oxy)-5-fluoropyridin-2-yl)-5-methylbenzyl)-1-(4,4-dimethyltetrahydrofuran-3-yl)-4-fluoro-1H-benzo[d]imidazole-6-carboxylic Acid]",0.136,
"CC1(C)COC[C@H]1n1c(Cn2cc(Cl)c(-c3cccc(OCc4ccc(Cl)cc4F)n3)cc2=O)nc2c(F)cc(C(=O)O)cc21 [Example 327, (S)-2-((5′-chloro-6-((4-chloro-2-fluorobenzyl)oxy)-2′-oxo-[2,4′-bipyridin]-1′(2′H)-yl)methyl)-1-(4,4-dimethyltetrahydrofuran-3-yl)-4-fluoro-1H-benzo[d]imidazole-6-carboxylic acid]",0.266,
"N#Cc1ccc(COc2cccc(-c3cc(F)c(Cc4nc5ccc(C(=O)O)cc5n4[C@@H]4CNC(=O)C4)cc3F)n2)c(F)c1 [Example 2, (S)-2-(4-(6-((4-cyano-2-fluorobenzyl)oxy)pyridin-2-yl)-2,5-difluorobenzyl)-1-(5-oxopyrrolidin-3-yl)-1H-benzo[d]imidazole-6-carboxylic acid]",,156
O=C(O)c1cc(F)c2nc(Cc3cc(F)c(-c4nccc(OCc5ccc(C(F)(F)F)cc5F)n4)cc3F)n(C[C@@H]3CCO3)c2c1 [Example 149],0.082,
"CC1(C)COC[C@H]1n1c(Cc2cc(F)c(-c3ccnc(OCc4ccc(C#N)cc4F)n3)cc2F)nc2c(F)cc(C(=O)O)cc21 [Example 205, (S)-2-(4-(2-((4-cyano-2-fluorobenzyl)oxy)pyrimidin-4-yl)-2,5-difluorobenzyl)-1-(4,4-dimethyltetrahydrofuran-3-yl)-4-fluoro-1H-benzo[d]imidazole-6-carboxylic acid]",0.097,
"CC1(C)COC[C@H]1n1c(Cc2cc(F)c(-c3nc(OCc4ccc(C#N)cc4F)ccc3F)cc2F)nc2c(F)cc(C(=O)O)cc21 [Example 365, (S)-2-(4-(6-((4-cyano-2-fluorobenzyl)oxy)-3-fluoropyridin-2-yl)-2,5-difluorobenzyl)-1-(4,4-dimethyltetrahydrofuran-3-yl)-4-fluoro-1H-benzo[d]imidazole-6-carboxylic acid]",0.124,
"CC1(C)COCC1n1c(Cc2cc(F)c(-c3ccc(F)c(OCc4ccc(C#N)cc4F)n3)cc2Cl)nc2ccc(C(=O)O)cc21 (stereo not shown) [Example 345, 2-(2-chloro-4-(6-((4-cyano-2-fluorobenzyl)oxy)-5-fluoropyridin-2-yl)-5-fluorobenzyl)-1-(4,4-dimethyltetrahydrofuran-3-yl)-1H-benzo[d]imidazole-6-carboxylic acid]",0.197,
"CC1(C)COC[C@H]1n1c(Cc2cc(F)c(-c3ccc(F)c(OCc4ccc(C#N)cc4F)n3)cc2F)nc2c(Cl)cc(C(=O)O)cc21 [Example 127, (S)-4-chloro-2-(4-(6-((4-cyano-2-fluorobenzyl)oxy)-5-fluoropyridin-2-yl)-2,5-difluorobenzyl)-1-(4,4-dimethyltetrahydrofuran-3-yl)-1H-benzo[d]imidazole-6-carboxylic Acid]",0.353,
"CC1(C)COC[C@H]1n1c(Cc2cc(F)c(-c3cccc(OCc4ccc(Cl)cc4F)n3)cc2F)nc2c(Cl)cc(C(=O)O)cc21 [Example 126, (S)-4-chloro-2-(4-(6-((4-chloro-2-fluorobenzyl)oxy)pyridin-2-yl)-2,5-difluorobenzyl)-1-(4,4-dimethyltetrahydrofuran-3-yl)-1H-benzo[d]imidazole-6-carboxylic Acid]",0.332,
"CC1(C)COCC1n1c(Cc2cc(F)c(-c3cccc(OCc4ccc(C#N)cc4F)n3)cc2F)nc2ccc(C(=O)O)c(F)c21 (stereo not shown) [Example 166, 2-(4-(6-((4-cyano-2-fluorobenzyl)oxy)pyridin-2-yl)-2,5-difluorobenzyl)-1-(4,4-dimethyltetrahydrofuran-3-yl)-7-fluoro-1H-benzo[d]imidazole-6-carboxylic Acid]",0.222,
"COCCn1c(Cc2cc(F)c(-c3cccc(OCc4cnc(-n5nc6c(n5)CCCC6)cc4Cl)n3)cc2F)nc2ccc(C(=O)O)cc21 [Example 567, 2-(4-(6-((4-chloro-6-(4,5,6,7-tetrahydro-2H-benzo[d][1,2,3]triazol-2-yl)pyridin-3-yl)methoxy)pyridin-2-yl)-2,5-difluorobenzyl)-1-(2-methoxyethyl)-1H-benzo[d]imidazole-6-carboxylic acid]",100,
"CC1(C)COC[C@@H]1n1c(Cc2ccc(-c3cccc(OCc4ccc(C#N)cc4F)n3)cc2F)nc2ccc(C(=O)O)cc21 (single isomer, unassigned) [Example 380]",0.096,
"CC1(C)COC[C@H]1n1c(Cc2cc(F)c(-c3nccc(OCc4ccc(C#N)cc4F)n3)cc2F)nc2c(F)cc(C(=O)O)cc21 [Example 206, (S)-2-(4-(4-((4-cyano-2-fluorobenzyl)oxy)pyrimidin-2-yl)-2,5-difluorobenzyl)-1-(4,4-dimethyltetrahydrofuran-3-yl)-4-fluoro-1H-benzo[d]imidazole-6-carboxylic acid]",0.191,
"Cn1cccc(COc2cccc(-c3cc(F)c(Cc4nc5ccc(C(=O)O)cc5n4[C@@H]4COCC4(C)C)cc3F)n2)c1=O [Example 426, (S)-2-(2,5-difluoro-4-(6-((1-methyl-2-oxo-1,2-dihydropyridin-3-yl)methoxy)pyridin-2-yl)benzyl)-1-(4,4-dimethyltetrahydrofuran-3-yl)-1H-benzo[d]imidazole-6-carboxylic acid]",1.48,
"CC1(C)COCC1n1c(Cc2c(F)cc(-c3cccc(OCc4ccc(C#N)cc4F)n3)c(F)c2F)nc2c(F)cc(C(=O)O)cc21 (stereo not shown) [Example 122, 2-(4-(6-((4-cyano-2-fluorobenzyl)oxy)pyridin-2-yl)-2,3,6-trifluorobenzyl)-1-(4,4-dimethyltetrahydrofuran-3-yl)-4-fluoro-1H-benzo[d]imidazole-6-carboxylic Acid]",0.031,
"CO[C@H](C)Cn1c(Cc2cc(F)c(-c3cccc(OCc4ccc(-n5ccnn5)cc4F)n3)cc2F)nc2c(F)cc(C(=O)O)cc21 [Example 354, (R)-2-(2,5-difluoro-4-(6-((2-fluoro-4-(1H-1,2,3-triazol-1-yl)benzyl)oxy)pyridin-2-yl)benzyl)-4-fluoro-1-(2-methoxypropyl)-1H-benzo[d]imidazole-6-carboxylic acid]",0.528,
"O=C(O)c1ccc2nc(Cc3cc(F)c(-c4cccc(OCc5cnc(-n6ccnn6)cc5Cl)n4)cc3F)n(CCOC3CC3)c2c1 [Example 562, 2-(4-(6-((4-chloro-6-(1H-1,2,3-triazol-1-yl)pyridin-3-yl)methoxy)pyridin-2-yl)-2,5-difluorobenzyl)-1-(2-cyclopropoxyethyl)-1H-benzo[d]imidazole-6-carboxylic acid]",0.207,
"CC1(C)COCC1n1c(Cc2cc(F)c(-c3cccc(OCc4ncc(C(F)(F)F)cc4F)n3)cc2F)nc2c(F)cc(C(=O)O)cc21 (stereo not shown) [Example 264, 2-(2,5-difluoro-4-(6-((3-fluoro-5-(trifluoromethyl)pyridin-2-yl)methoxy)pyridin-2-yl)benzyl)-1-(4,4-dimethyltetrahydrofuran-3-yl)-4-fluoro-1H-benzo[d]imidazole-6-carboxylic acid]",0.155,
"CC1(C)COC[C@H]1n1c(Cc2cc(F)c(-c3cccc(OCc4ccc(Cl)cc4F)n3)cc2F)nc2cnc(C(=O)O)cc21 [Example 423, (S)-2-(4-(6-((4-chloro-2-fluorobenzyl)oxy)pyridin-2-yl)-2,5-difluorobenzyl)-1-(4,4-dimethyltetrahydrofuran-3-yl)-1H-imidazo[4,5-c]pyridine-6-carboxylic acid]",2.54,
"N#Cc1ccc(COc2cccc(-c3cc(F)c(Cc4nc5ccc(C(=O)O)cc5n4[C@@H]4CO[C@H]5COC[C@H]54)cc3F)n2)c(F)c1 [Example 79, 2-(4-(6-((4-cyano-2-fluorobenzyl)oxy)pyridin-2-yl)-2,5-difluorobenzyl)-1-((3S,3aR,6aR)-hexahydrofuro[3,4-b]furan-3-yl)-1H-benzo[d]imidazole-6-carboxylic Acid]",5.62,
"Cc1cc(F)c(COc2cccc(-c3cc(F)c(Cc4nc5ccc(C(=O)O)cc5n4[C@@H]4COCC4(C)C)cc3F)n2)cc1Cl [Example 459, (S)-2-(4-(6-((5-chloro-2-fluoro-4-methylbenzyl)oxy)pyridin-2-yl)-2,5-difluorobenzyl)-1-(4,4-dimethyltetrahydrofuran-3-yl)-1H-benzo[d]imidazole-6-carboxylic acid]",0.8,
"CC1(C)COC[C@H]1n1c(Cc2cc(F)c(-c3cccc(OCc4ccc(Cl)cc4F)n3)cc2F)nc2cc(F)c(C(=O)O)cc21 [Example 417, (S)-2-(4-(6-((4-chloro-2-fluorobenzyl)oxy)pyridin-2-yl)-2,5-difluorobenzyl)-1-(4,4-dimethyltetrahydrofuran-3-yl)-5-fluoro-1H-benzo[d]imidazole-6-carboxylic acid]",0.19,
"CC1(C)COC[C@H]1n1c(Cc2c(F)cc(-c3ccnc(OCc4ccc(Cl)cc4)n3)c(F)c2F)nc2c(F)cc(C(=O)O)cc21 [Example 229, (S)-2-(4-(2-((4-chlorobenzyl)oxy)pyrimidin-4-yl)-2,3,6-trifluorobenzyl)-1-(4,4-dimethyltetrahydrofuran-3-yl)-4-fluoro-1H-benzo[d]imidazole-6-carboxylic acid]",0.135,
"COC(=O)N1Cc2ccc(COc3cccc(-c4cc(F)c(Cc5nc6ccc(C(=O)O)cc6n5C[C@@H]5CCO5)cc4F)n3)cc2C1 [Example 521, (S)-2-(2,5-difluoro-4-(6-((2-(methoxycarbonyl)isoindolin-5-yl)methoxy)pyridin-2-yl)benzyl)-1-(oxetan-2-ylmethyl)-1H-benzo[d]imidazole-6-carboxylic acid]",0.111,
"Cn1ncc2ccc(COc3cccc(-c4cc(F)c(Cc5nc6ccc(C(=O)O)cc6n5C[C@@H]5CCO5)cc4F)n3)cc21 [Example 524, (S)-2-(2,5-difluoro-4-(6-((1-methyl-1H-indazol-6-yl)methoxy)pyridin-2-yl)benzyl)-1-(oxetan-2-ylmethyl)-1H-benzo[d]imidazole-6-carboxylic acid]",0.605,
